Source: patent publication US20250296959A1, “B7-H3 TARGETING PEPTIDES AND CONSTRUCTS THEREOF” (Mariana Oncology Inc., priority 2024, published 2025)
Starred links: 1 amine or outer side, 2 acyl side, 3 side chain; linkers in the order of their positions; H or OH if unused. Positions of bridges follow the written chain, without caps; N, C: chain ends. Non-standard residues stand in square brackets, D forms with d. Residues, ends and D or L forms follow the SMILES beside them. Groups on a side chain read outwards from the residue. *: point of attachment. X12 = O=C(O)CN1CCN(CC(=O)O)CCN([C@@H](CCC(=O)*)C(=O)O)CCN(CC(=O)O)CC1; Ala(piperidin-4-yl) = O=C([C@H](CC1CCN([*:3])CC1)N[*:1])[*:2]; DOTA = O=C(O)CN1CCN(CC(=O)O)CCN(CC(=O)*)CCN(CC(=O)O)CC1; Trp(5-F) = N[C@@H](Cc1c[nH]c2ccc(F)cc12)C(=O)O; Phe(3R-Me) = C[C@H](c1ccccc1)[C@H](N)C(=O)O; γGlu = O=C(O)[C@H](CCC(=O)[*:2])N[*:1]; 1Nal = N[C@@H](Cc1cccc2ccccc12)C(=O)O; Ala(4-THP) = N[C@@H](CC1CCOCC1)C(=O)O; X3 = O=C([C@H](CCC1CCC1)N[*:1])[*:2]; Ile(3-Me) = CCC(C)(C)[C@H](N)C(=O)O; Val(3-OH) = CC(C)(O)[C@H](N)C(=O)O; hCha = N[C@@H](CCC1CCCCC1)C(=O)O; PEG4 = NCCOCCOCCOCCOCCC(=O)O; Tle = CC(C)(C)[C@H](N)C(=O)O; hLeu = CC(C)CC[C@H](N)C(=O)O; Dab = NCC[C@H](N)C(=O)O

biological target: T1, human 4lg B7-H3 (Homo sapiens, UniProt Q5ZPR3); assay: Affinity determination by surface plasmon resonance (SPR) to 4Ig B7-H3; settings: SPR KD—37° C., 4Ig B7-H3; 37° C. flow cell temperature
T1 sequence (Q5ZPR3 29-534): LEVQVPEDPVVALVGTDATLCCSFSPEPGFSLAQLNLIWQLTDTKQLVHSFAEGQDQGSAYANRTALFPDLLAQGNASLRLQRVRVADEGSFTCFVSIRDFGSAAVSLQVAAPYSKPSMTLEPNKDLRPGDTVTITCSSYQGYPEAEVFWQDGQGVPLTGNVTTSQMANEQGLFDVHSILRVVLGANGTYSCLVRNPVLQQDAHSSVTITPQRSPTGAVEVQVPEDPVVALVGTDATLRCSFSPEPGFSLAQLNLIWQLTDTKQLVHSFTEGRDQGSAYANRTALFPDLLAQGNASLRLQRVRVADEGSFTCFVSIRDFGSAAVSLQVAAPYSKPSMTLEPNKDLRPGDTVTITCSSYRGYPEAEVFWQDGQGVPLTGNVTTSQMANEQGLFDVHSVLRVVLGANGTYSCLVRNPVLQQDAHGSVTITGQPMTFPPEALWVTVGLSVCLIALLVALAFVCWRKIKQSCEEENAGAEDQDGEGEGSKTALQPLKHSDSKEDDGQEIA

Kd, < 1 nM:
CCC(C)(C)[C@@H]1NC(=O)[C@@H](NC(=O)[C@H](Cc2ccc(O)cc2)NC(=O)[C@H](CCC(C)C)NC(C)=O)CSSC[C@@H](C(=O)N[C@@H](Cc2c[nH]c3ccc(F)cc23)C(=O)N[C@@H](Cc2ccccc2)C(=O)N[C@H](C(=O)N[C@H](CCCCNC(=O)CN2CCN(CC(=O)O)CCN(CC(=O)O)CCN(CC(=O)O)CC2)C(=O)O)C(C)(C)O)NC(=O)[C@H](Cc2ccc(O)cc2)NC(=O)[C@H](C(C)C)NC(=O)[C@H](CC(=O)O)NC(=O)[C@H](CC2CCOCC2)NC(=O)[C@H](CC2CCNCC2)NC(=O)CNC1=O [compound 432, Ac-hLeu-Y-C-betaMelle-G-PipAla-ThpA-D-V-Y-C-5FW-F-hydroxyVal-dLys(DOTA)-COOH] (Ac-[hLeu]YC[Ile(3-Me)]G[Ala(piperidin-4-yl)][Ala(4-THP)]DVYC[Trp(5-F)]F[Val(3-OH)][dK](DOTA)-OH; disulfide 3-11)
CC(=O)N[C@@H](CCC(C)C)C(=O)N[C@@H](Cc1ccc(O)cc1)C(=O)N[C@H]1CSSC[C@@H](C(=O)N[C@@H](Cc2c[nH]c3ccc(F)cc23)C(=O)N[C@H](C(=O)N[C@H](C(=O)N[C@H](CCCCNC(=O)CN2CCN(CC(=O)O)CCN(CC(=O)O)CCN(CC(=O)O)CC2)C(=O)O)C(C)(C)O)[C@H](C)c2ccccc2)NC(=O)[C@H](Cc2ccc(O)cc2)NC(=O)[C@H](C(C)C)NC(=O)[C@H](CC(=O)O)NC(=O)[C@H](CC2CCOCC2)NC(=O)[C@H](CC2CCNCC2)NC(=O)CNC(=O)[C@H](C(C)(C)C)NC1=O [compound 434, Ac-hLeu-Y-C-Tbg-G-PipAla-ThpA-D-V-Y-C-5FW-[(2S, 3R)beta-Me-Phe]-hydroxyVal-dLys(DOTA)-COOH] (Ac-[hLeu]YC[Tle]G[Ala(piperidin-4-yl)][Ala(4-THP)]DVYC[Trp(5-F)][Phe(3R-Me)][Val(3-OH)][dK](DOTA)-OH; disulfide 3-11)
CC(=O)N[C@@H](CCC(C)C)C(=O)N[C@@H](Cc1ccc(O)cc1)C(=O)N[C@H]1CSSC[C@@H](C(=O)N[C@@H](Cc2cccc3ccccc23)C(=O)N[C@@H](Cc2ccccc2)C(=O)N[C@H](C(=O)N[C@H](CCCCNC(=O)CN2CCN(CC(=O)O)CCN(CC(=O)O)CCN(CC(=O)O)CC2)C(=O)O)C(C)(C)O)NC(=O)[C@H](Cc2ccc(O)cc2)NC(=O)[C@H](C(C)C)NC(=O)[C@H](CC(=O)O)NC(=O)[C@H](CC2CCOCC2)NC(=O)[C@H](CCN)NC(=O)CNC(=O)[C@H](C(C)(C)C)NC1=O [compound 435, Ac-hLeu-Y-C-Tbg-G-Dab-ThpA-D-V-Y-C-1Nal-F-hydroxyVal-dLys(DOTA)-COOH] (Ac-[hLeu]YC[Tle]G[Dab][Ala(4-THP)]DVYC[1Nal]F[Val(3-OH)][dK](DOTA)-OH; disulfide 3-11)
CC(=O)N[C@@H](CCC(C)C)C(=O)N[C@@H](Cc1ccc(O)cc1)C(=O)N[C@H]1CSSC[C@@H](C(=O)N[C@@H](Cc2c[nH]c3ccc(F)cc23)C(=O)N[C@@H](Cc2ccccc2)C(=O)N[C@H](C(=O)N[C@H](CCCCNC(=O)CC[C@@H](C(=O)O)N2CCN(CC(=O)O)CCN(CC(=O)O)CCN(CC(=O)O)CC2)C(=O)O)C(C)(C)O)NC(=O)[C@H](Cc2ccc(O)cc2)NC(=O)[C@H](C(C)C)NC(=O)[C@H](CC(=O)O)NC(=O)[C@H](CC2CCOCC2)NC(=O)[C@H](CC2CCNCC2)NC(=O)CNC(=O)[C@H](C(C)(C)C)NC1=O [compound 439, Ac-hLeu-Y-C-Tbg-G-PipAla-ThpA-D-V-Y-C-5FW-F-hydroxyVal-dLys(S-DOTAGA)-COOH] (Ac-[hLeu]YC[Tle]G[Ala(piperidin-4-yl)][Ala(4-THP)]DVYC[Trp(5-F)]F[Val(3-OH)][dK](X12)-OH; disulfide 3-11)
CC(=O)N[C@@H](CCC(C)C)C(=O)N[C@@H](Cc1ccc(O)cc1)C(=O)N[C@H]1CSSC[C@@H](C(=O)N[C@@H](Cc2cccc3ccccc23)C(=O)N[C@@H](Cc2ccccc2)C(=O)N[C@H](C(=O)N[C@H](CCCCNC(=O)CC[C@H](NC(=O)CN2CCN(CC(=O)O)CCN(CC(=O)O)CCN(CC(=O)O)CC2)C(=O)O)C(=O)O)C(C)(C)O)NC(=O)[C@H](Cc2ccc(O)cc2)NC(=O)[C@H](C(C)C)NC(=O)[C@H](CC(=O)O)NC(=O)[C@H](CC2CCOCC2)NC(=O)[C@H](CC2CCNCC2)NC(=O)CNC(=O)[C@H](C(C)(C)C)NC1=O [compound 441, Ac-hLeu-Y-C-Tbg-G-PipAla-ThpA-D-V-Y-C-1Nal-F-hydroxyVal-dLys(gGlu-DOTA)-COOH] (Ac-[hLeu]YC[Tle]G[Ala(piperidin-4-yl)][Ala(4-THP)]DVYC[1Nal]F[Val(3-OH)][dK]([γGlu-DOTA])-OH; disulfide 3-11)
CC(=O)N[C@@H](CCC1CCCCC1)C(=O)N[C@@H](Cc1ccc(O)cc1)C(=O)N[C@H]1CSSC[C@@H](C(=O)N[C@@H](Cc2c[nH]c3ccc(F)cc23)C(=O)N[C@@H](Cc2ccccc2)C(=O)N[C@H](C(=O)N[C@H](CCCCNC(=O)CN2CCN(CC(=O)O)CCN(CC(=O)O)CCN(CC(=O)O)CC2)C(=O)O)C(C)(C)O)NC(=O)[C@H](Cc2ccc(O)cc2)NC(=O)[C@H](C(C)C)NC(=O)[C@H](CC(=O)O)NC(=O)[C@H](CC2CCOCC2)NC(=O)[C@H](CC2CCNCC2)NC(=O)CNC(=O)[C@H](C(C)(C)C)NC1=O [compound 442, Ac-hCha-Y-C-Tbg-G-PipAla-ThpA-D-V-Y-C-5FW-F-hydroxyVal-dLys(DOTA)-COOH] (Ac-[hCha]YC[Tle]G[Ala(piperidin-4-yl)][Ala(4-THP)]DVYC[Trp(5-F)]F[Val(3-OH)][dK](DOTA)-OH; disulfide 3-11)
CC(=O)N[C@@H](CCC1CCC1)C(=O)N[C@@H](Cc1ccc(O)cc1)C(=O)N[C@H]1CSSC[C@@H](C(=O)N[C@@H](Cc2c[nH]c3ccc(F)cc23)C(=O)N[C@@H](Cc2ccccc2)C(=O)N[C@H](C(=O)N[C@H](CCCCNC(=O)CN2CCN(CC(=O)O)CCN(CC(=O)O)CCN(CC(=O)O)CC2)C(=O)O)C(C)(C)O)NC(=O)[C@H](Cc2ccc(O)cc2)NC(=O)[C@H](C(C)C)NC(=O)[C@H](CC(=O)O)NC(=O)[C@H](CC2CCOCC2)NC(=O)[C@H](CC2CCNCC2)NC(=O)CNC(=O)[C@H](C(C)(C)C)NC1=O [compound 443, Ac-hCba-Y-C-Tbg-G-PipAla-ThpA-D-V-Y-C-5FW-F-hydroxyVal-dLys(DOTA)-COOH] (Ac-[X3]YC[Tle]G[Ala(piperidin-4-yl)][Ala(4-THP)]DVYC[Trp(5-F)]F[Val(3-OH)][dK](DOTA)-OH; disulfide 3-11)
CC(=O)N[C@@H](CCC(C)C)C(=O)N[C@@H](Cc1ccc(O)cc1)C(=O)N[C@H]1CSSC[C@@H](C(=O)N[C@@H](Cc2c[nH]c3ccc(F)cc23)C(=O)N[C@@H](Cc2ccccc2)C(=O)N[C@H](C(N)=O)C(C)(C)O)NC(=O)[C@H](Cc2ccc(O)cc2)NC(=O)[C@H](C(C)C)NC(=O)[C@H](CC(=O)O)NC(=O)[C@H](CC2CCN(C(=O)CCOCCOCCOCCOCCNC(=O)CN3CCN(CC(=O)O)CCN(CC(=O)O)CCN(CC(=O)O)CC3)CC2)NC(=O)[C@H](CC2CCNCC2)NC(=O)CNC(=O)[C@H](C(C)(C)C)NC1=O [compound 445, Ac-hLeu-Y-C-Tbg-G-PipAla-Pip(PEG4-DOTA)Ala-D-V-Y-C-5FW-F-hydroxyVal-CONH2] (Ac-[hLeu]YC[Tle]G[Ala(piperidin-4-yl)][Ala(piperidin-4-yl)]([PEG4-DOTA])DVYC[Trp(5-F)]F[Val(3-OH)]-NH2; disulfide 3-11)
CC(=O)N[C@@H](CCC(C)C)C(=O)N[C@@H](Cc1ccc(O)cc1)C(=O)N[C@H]1CSSC[C@@H](C(=O)N[C@@H](Cc2c[nH]c3ccc(F)cc23)C(=O)N[C@@H](Cc2ccccc2)C(=O)N[C@H](C(=O)N[C@H](CO)C(N)=O)C(C)(C)O)NC(=O)[C@H](Cc2ccc(O)cc2)NC(=O)[C@H](C(C)C)NC(=O)[C@H](CC(=O)O)NC(=O)[C@H](CC2CCN(C(=O)CCOCCOCCOCCOCCNC(=O)CN3CCN(CC(=O)O)CCN(CC(=O)O)CCN(CC(=O)O)CC3)CC2)NC(=O)[C@H](CC2CCNCC2)NC(=O)CNC(=O)[C@H](C(C)(C)C)NC1=O [compound 446, Ac-hLeu-Y-C-Tbg-G-PipAla-Pip(PEG4-DOTA)Ala-D-V-Y-C-5FW-F-hydroxyVal-dSer-CONH2] (Ac-[hLeu]YC[Tle]G[Ala(piperidin-4-yl)][Ala(piperidin-4-yl)]([PEG4-DOTA])DVYC[Trp(5-F)]F[Val(3-OH)][dS]-NH2; disulfide 3-11)
CC(=O)N[C@@H](CCC(C)C)C(=O)N[C@@H](Cc1ccc(O)cc1)C(=O)N[C@H]1CSSC[C@@H](C(=O)N[C@@H](Cc2c[nH]c3ccc(F)cc23)C(=O)N[C@@H](Cc2ccccc2)C(=O)N[C@H](C(=O)N[C@H](CCC(=O)O)C(N)=O)C(C)(C)O)NC(=O)[C@H](Cc2ccc(O)cc2)NC(=O)[C@H](C(C)C)NC(=O)[C@H](CC(=O)O)NC(=O)[C@H](CC2CCN(C(=O)CN3CCN(CC(=O)O)CCN(CC(=O)O)CCN(CC(=O)O)CC3)CC2)NC(=O)[C@H](CC2CCNCC2)NC(=O)CNC(=O)[C@H](C(C)(C)C)NC1=O [compound 447, Ac-hLeu-Y-C-Tbg-G-PipAla-Pip(DOTA)Ala-D-V-Y-C-5FW-F-hydroxyVal-dGlu-CONH2] (Ac-[hLeu]YC[Tle]G[Ala(piperidin-4-yl)][Ala(piperidin-4-yl)](DOTA)DVYC[Trp(5-F)]F[Val(3-OH)][dE]-NH2; disulfide 3-11)
